Data published in patent publication US20250008957A1, “METHOD OF IMPROVING PLANT GROWTH” (UPL LIMITED, priority 2021, published 2025).

Experiments:
[1] = tested on: corn seeds; test: Germination index of treated corn seeds by petri dish method; format: in vivo, Zea mays; conditions: 5 ml/kg of seed
Protocol: 7 kg of untreated clean seeds of Zea mays were collected. The seeds were mixed thoroughly in a tray to make them homogeneous. 21 sub-samples of 300 g each were prepared. A polythene bag was used for the treatment of each sample with flonicamid combinations. The formulation was used at a dosage of 5 ml/kg of seed. Before treating, the seeds were checked for their initial moisture content and minimum germination percentage. After the treatment, the treated seeds were dried in a hot air chamber having temperature of 40-43° C. to maintain their original moisture content. Table 10 discloses the germination index of corn seeds by petri dish method.

[2] = tested on: corn seeds; test: Seed treatment of corn seeds with flonicamid combinations: root length and fresh weight of seedlings; format: in vivo, Zea mays; conditions: 5 ml/kg of seed; for Fresh weight: seedlings
Protocol: 7 kg of untreated clean seeds of Zea mays were collected. The seeds were […] mixed thoroughly in a tray to make them homogeneous. 21 sub-samples of 300 g each were prepared. A polythene bag was used for the treatment of each sample with flonicamid combinations. The formulation was used at a dosage of 5 ml/kg of seed. Before treating, the seeds were checked for their initial moisture content and minimum germination percentage. After the treatment, the treated seeds were dried in a hot air chamber having temperature of 40-43° C. to maintain their original moisture content. Table 5 discloses the effect on root length and Table 6 discloses fresh weight of the seedlings.

SMILES	Germination index ([1]; 4th day)	Germination index ([1]; 7th day)	Root length [2] [cm]	Fresh weight [2] [g]
CC(C)C1CCC(Cc2ccc(Cl)cc2)C1(O)Cn1cncn1 (centres unmarked) [Ipconazole 25 g/L, ipconazole]	7	3		
CC1=C(C(=O)Nc2ccccc2)SCCO1 [Carboxin 200 g/L, carboxin]			14.25	
N#CCNC(=O)c1cnccc1C(F)(F)F [Flonicamid 240 g/L, N-cyanomethyl-4-trifluoromethylnicotinamide]	7	3		
N#Cc1c[nH]cc1-c1cccc2c1OC(F)(F)O2 [Fludioxonil 25 g/L, fludioxonil]	8	1	14	
COCC(=O)N(c1c(C)cccc1C)C(C)C(=O)OC (centres unmarked) [Metalayxl 50 g/L, metalaxyl]	7	3	15	25.72
CN1COCN(Cc2cnc(Cl)s2)/C1=N\[N+](=O)[O-] [Thiamethoxam]	7	2	11.75	19.31
N#CCNC(=O)c1cnccc1C(F)(F)F [Flonicamid 360 g/L, N-cyanomethyl-4-trifluoromethylnicotinamide]	7	1	12.5	22.73
CNC(=O)c1cc(C#N)cc(C)c1NC(=O)c1cc(Br)nn1-c1ncccc1Cl [Cyantraniliprole 120 g/L, Cyantraniliprole]	7	3	14.25	20.92
CNC(=O)c1cc(Cl)cc(C)c1NC(=O)c1cc(Br)nn1-c1ncccc1Cl [Chlorantraniliprole 120 g/L, Chlorantraniliprole]	7	1		
